# Laboratory results published in PMC10877565, “Iso-ADP-Ribose Fluorescence Polarization Probe for the Screening of RNF146 WWE Domain Inhibitors” (ACS Chemical Biology, 2024).
# Values joined by “and” are separate entries in the source; they are usually repeats but may differ in a detail not shown here. Equal values may be shown once. “Also recorded” adds a separate entry of the source. Read-outs that look alike come from different tables or passages of the source.
# Assays:
# [1] = molecular target: T1, RNF146 WWE domain (Homo sapiens, UniProt Q9NTX7); assay: Competitive FP-based binding assay with TAMRA-isoADPr tracer; conditions: for IC50: TAMRA-isoADPr 20 nM, RNF146 WWE 100 nM; for Hillslope: IC50 curve of fragment hits
# T1 construct: PARP11, PARP14, TiPARP, DTX2, and RNF146 WWE domain plasmids were either cloned or purchased from Twist Biosciences; His tag (N); made in house; host or cells: E. coli BL21(DE3), pET28a
# T1 sequence (Q9NTX7 92-168 limits assumed): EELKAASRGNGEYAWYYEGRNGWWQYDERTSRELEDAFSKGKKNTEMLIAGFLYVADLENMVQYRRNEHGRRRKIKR
# [2] = system: WWE domains; assay: FP titration of different WWE domains using TAMRA-ADPr; format: binding; conditions: Figure S3, n = 3
# Text: (§1) We then screened the tracer TAMRA-isoADPr against WWE domains of some other proteins, including PARP11, PARP14, HUWE1, TiPARP, and DTX2, under the same conditions. […] To check the folding of purified WWE domains, we obtained the circular dichroism (CD) spectra for the purified WWE domains, and the results indicated proper folding of all purified proteins (Figure S5). […] The isoADPr binding pocket of RNF146 WWE is special in that the entire pocket is largely positively charged with multiple arginine and lysine residues to interact with both phosphate groups of isoADPr, while this feature is missing in other WWE domains containing proteins (Figure S2). Indeed, RNF146 WWE is the only reported high-affinity binder of the isoADPr monomer, so it is likely that other WWE domains tested are simply too weak binders to show any significant binding at the concentrations tested.
# Figure S3. FP titration of different WWE domains using TA M R A -ADPr (n= 3). Data of SA RS-C oV 2 N sp3
# Macro (black) is shown here as comparison.
# F i g u re S 4. Attempted IC50 measurement and chemical structure of Z1203162033. […]
# [3] = molecular target: T1, RNF146 WWE domain; assay: FP protein titration of tracer with RNF146 WWE; format: binding; conditions: tracer 20 nM, Tris buffer pH 8.0
# Procedure: Having obtained the tracer molecule TAMRA-isoADPr, we then examined its binding affinity by FP protein titration experiments, where a fixed concentration of the tracer (20 nM) was titrated with increasing concentrations of RNF146 WWE protein in Tris buffer (pH 8.0), yielding a binding curve with an increasing mP shift (ΔmP) until a plateau was observed.
# (§2) The purified WWE domain proteins were 3-fold serially diluted from 20 μM to ∼5 nM in the assay buffer (25 mM Tris pH 8.0, 150 mM NaCl, and 0.01% Tween-20). In the assay, 50 μL of the protein solution at each concentration was transferred to a 96-well black plate (Corning, #3915), followed by the addition of 50 μL of TAMRA-isoADPr (40 nM, 2X) in the assay buffer to reach a final volume of 100 μL. The plate was allowed to stand at RT for 30 min and then scanned on Cytation5 equipped with an FP filter cube (Agilent, part number: 8040562, Ex: 530/25, Em: 590/35). mP values were calculated using the equation below [drawing 1] where F// and F⊥ are the parallel and perpendicular fluorescence intensities, respectively, and G is the grating factor of the instrument, which was calibrated so that 20 nM 5-TAMRA has an mP shift of 50. The obtained mP data were fitted in the one-site-specific binding model implemented in GraphPad Prism 9.4.1 (GraphPad Software, Inc.) to give the Kd value using the equation below [drawing 2]
# [4] = molecular target: T2, DTX2 WWE (Homo sapiens, UniProt Q86UW9); assay: FP titration of WWE domains with TAMRA-isoADPr; format: binding; conditions: same conditions as RNF146 WWE titration
# T2 sequence (Q86UW9 98-174 limits assumed): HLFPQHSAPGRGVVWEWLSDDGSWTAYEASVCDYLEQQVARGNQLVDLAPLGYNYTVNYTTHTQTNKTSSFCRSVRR
# Text: as §1, §2
# [5] = molecular target: T3, HUWE1 WWE (Homo sapiens, UniProt Q7Z6Z7); assay: FP titration of WWE domains with TAMRA-isoADPr; format: binding; conditions: same conditions as RNF146 WWE titration
# T3 construct: The HUWE1 WWE domain was purified as previously reported; made in house
# T3 sequence (Q7Z6Z7 1603-1680 limits assumed): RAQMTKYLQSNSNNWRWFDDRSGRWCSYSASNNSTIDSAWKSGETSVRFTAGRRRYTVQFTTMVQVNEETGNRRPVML
# Text: as §1, §2
# [6] = molecular target: T4, PARP11 WWE (Homo sapiens, UniProt Q9NR21); assay: FP titration of WWE domains with TAMRA-isoADPr; format: binding; conditions: same conditions as RNF146 WWE titration
# T4 construct: PARP11, PARP14, TiPARP, DTX2, and RNF146 WWE domain plasmids were either cloned or purchased from Twist Biosciences; made in house; host or cells: E. coli BL21(DE3), pET28a
# T4 sequence (Q9NR21 22-106 limits assumed): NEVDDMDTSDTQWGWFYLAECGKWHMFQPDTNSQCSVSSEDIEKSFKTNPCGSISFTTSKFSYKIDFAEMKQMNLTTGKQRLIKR
# Text: as §1, §2
# [7] = molecular target: T5, PARP14 WWE (Homo sapiens, UniProt Q460N5); assay: FP titration of WWE domains with TAMRA-isoADPr; format: binding; conditions: same conditions as RNF146 WWE titration
# T5 construct: PARP11, PARP14, TiPARP, DTX2, and RNF146 WWE domain plasmids were either cloned or purchased from Twist Biosciences; made in house; host or cells: E. coli BL21(DE3), pET28a
# T5 sequence (Q460N5 1523-1601 limits assumed): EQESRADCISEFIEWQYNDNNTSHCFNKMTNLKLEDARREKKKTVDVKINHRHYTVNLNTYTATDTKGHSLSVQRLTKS
# Text: as §1, §2
# [8] = molecular target: T6, TiPARP WWE (Homo sapiens, UniProt Q7Z3E1); assay: FP titration of WWE domains with TAMRA-isoADPr; format: binding; conditions: same conditions as RNF146 WWE titration
# T6 construct: PARP11, PARP14, TiPARP, DTX2, and RNF146 WWE domain plasmids were either cloned or purchased from Twist Biosciences; made in house; host or cells: E. coli BL21(DE3), pET28a
# T6 sequence (Q7Z3E1 332-410 limits assumed): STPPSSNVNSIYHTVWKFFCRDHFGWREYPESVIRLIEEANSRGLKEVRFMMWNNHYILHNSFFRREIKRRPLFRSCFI
# Text: as §1, §2
# [9] = molecular target: T7, RNF146 WWE (Homo sapiens, UniProt Q9NTX7); assay: Fragment library screening by competitive FP, 384-well; format: binding; conditions: 100 μM, 1% DMSO
# T7 construct: PARP11, PARP14, TiPARP, DTX2, and RNF146 WWE domain plasmids were either cloned or purchased from Twist Biosciences; His tag (N); made in house; host or cells: E. coli BL21(DE3), pET28a
# T7 sequence (Q9NTX7 92-168 limits assumed): T1 sequence (Q9NTX7 92-168 limits assumed)
# Procedure: To test the performance of the established FP assay in high-throughput formats, we conducted a pilot screen where isoADPr was used as the positive control, and Enamine Essential Fragments Library, which contains 320 fragments, was used as a test case for potential inhibitors. The test library was screened at 100 μM in 1% DMSO under the established conditions in duplicates in two 384-well plates (Figure 4A). In each plate, four controls were used: buffer control, tracer control, negative control, and positive control. Buffer control allowed the detection of background fluorescence, while tracer and negative controls gave mP values of the free tracer and maximally bound tracer, to which inhibition rates of fragment candidates were normalized. […] From these control wells, different assay parameters could be calculated. One important FP assay parameter is the assay window (ΔmP), which is calculated as the difference between the mP value recorded for the bound tracer (i.e., negative control) and the mP value recorded for the free tracer (i.e., tracer control). […] Another parameter general to all HTS assays is the screening window coefficient (Z′ factor). A Z′ factor value between 0.5 and 1 is suitable for HTS.[26] […] Moreover, the coefficients of variation (CV) of both negative and positive control wells were low.
# Using epMotion 96 (Eppendorf), 49.5 μL of the assay solution (100 nM RNF146 WWE and 20 nM TAMRA-isoADPr) or control solution (tracer-only, buffer-only, and positive control with additional 100 μM isoADPr) was transferred from a 96-well mother plate to a 384-well black plate (Corning, #3575). […] For each fragment and positive and negative control well, the relative percent binding of the tracer was calculated as described above. Z’ factor was calculated with the following equation [drawing 5] where σP and σN are the standard deviations of ΔmP values of positive and negative control wells, while μP and μN are the mean ΔmP values of positive and negative control wells.
# [10] = molecular target: T7, RNF146 WWE; assay: Biolayer interferometry, immobilized biotin-isoADPr with RNF146 WWE; format: binding; conditions: BLI
# Text: To further validate that our probe indeed can bind to RNF146 WWE, we sought to measure the Kd value of TAMRA-isoADPr toward RNF146 WWE through biolayer interferometry (BLI). A typical BLI experiment relies on an antibody-coated biosensor tip that can capture the protein of interest, and it was then dipped into solutions containing potential interacting molecules (here, referred to as the analyte).[20] The interaction between the protein and the analyte can be measured in real time through monitoring the reflected light pattern upon complex formation on the biosensor surface, giving useful kinetics information, including kon, koff, and Kd. […] Therefore, we synthesized a biotin-labeled isoADPr compound (11, Figure 3A) from 3′-azido-isoADPr, which is structurally analogous to TAMRA-isoADPr. Biotin-isoADPr was immobilized onto SA biosensors that were then dipped into RNF146 WWE solutions of varying concentrations in multiple association–dissociation cycles (Figure S1B). […] The BLI experiment further supports that our tracer design strategy works for RNF146 WWE.
# The binding of biotin-isoADPr to the RNF146 WWE was monitored and measured on an Octet RH16 biolayer interferometer. Three replicate streptavidin biosensor tips (SA) were loaded with 1 μM biotin-isoADPr in the kinetics buffer (PBS with 0.02% Tween-20 and 0.1% BSA) for 300 s. After a 300 s baseline step, the loaded sensor tips were moved to sample wells containing RNF146 WWE protein at 0, 12, 49, 187, 750, 3000, 9000, and 18000 nM in the kinetics buffer sequentially in multiple cycles, with each cycle consisting a 300 s association step in the sample well and a 300 s dissociation step in the buffer well. The volume of each well was 200 μL. A reference biosensor without biotin-isoADPr loading was used to exclude the possibilities of nonspecific binding, and reference wells without RNF146 WWE protein were used for blank subtraction. Data were processed and curves were fitted with a 1:1 best-fit model in Octet BLI Analysis software.
# [11] = molecular target: T7, RNF146 WWE; conditions: isothermal titration calorimetry; read-out: reported Kd; cited from earlier work
# [12] = molecular target: T3, HUWE1 WWE; conditions: reported; cited from earlier work
compound,measurement,setting,value
[N-]=[N+]=N[C@H]1[C@@H](O[C@H]2O[C@H](COP(=O)(O)O)[C@@H](O)[C@H]2O)[C@H](n2cnc3c(N)ncnc32)O[C@@H]1COP(=O)(O)O [3′-azido-isoADPr],fold more potent than isoADPr,[1]; IC50 compared with isoADPr,2 fold
same,IC50,[1]; 96-well,0.273 µM
CN(C)c1ccc2c(c1)Oc1cc(N(C)C)ccc1C21OC(=O)c2cc(C(=O)NCCCCCCNC(=O)CCc3cn([C@H]4O[C@H](COP(=O)(O)OP(=O)(O)OC[C@H]5O[C@@H](n6cnc7c(N)ncnc76)[C@H](O)[C@@H]5O)[C@@H](O)[C@H]4O)nn3)ccc21 [TAMRA-ADPr],binding of TAMRA-ADPr,[2],does not bind
CN(C)c1ccc2c(c1)Oc1cc(N(C)C)ccc1C21OC(=O)c2cc(C(=O)NCCCCCCNC(=O)CCc3cn([C@H]4[C@@H](O[C@H]5O[C@H](COP(=O)(O)O)[C@@H](O)[C@H]5O)[C@H](n5cnc6c(N)ncnc65)O[C@@H]4COP(=O)(O)O)nn3)ccc21 [TAMRA-isoADPr],Kd,[3],0.0452 µM
same,binding of tracer,[4],no binding; also recorded: none of these WWE domains could bind the tracer
same,binding of tracer,[5],no binding; also recorded: none of these WWE domains could bind the tracer
same,binding of tracer,[6],no binding; also recorded: none of these WWE domains could bind the tracer
same,binding of tracer,[7],no binding; also recorded: none of these WWE domains could bind the tracer
same,binding of tracer,[8],no binding; also recorded: none of these WWE domains could bind the tracer
COc1cc(CC(=O)O)ccc1O [Z1203162033],binding strength in attempted IC50 measurement,[1]; Figure S4,much weaker binder
same,percent binding of tracer,[9]; AVERAGE of two plates,43.4%
same,percent binding of tracer,[9]; PLATE1,43.6%
same,percent binding of tracer,[9]; PLATE2,43.3%
Nc1ncnc2c1ncn2[C@@H]1O[C@H](COP(=O)(O)O)[C@@H](n2cc(COCCOCCOCCOCCNC(=O)CCCC[C@@H]3SC[C@@H]4NC(=O)N[C@@H]43)nn2)[C@H]1O[C@H]1O[C@H](COP(=O)(O)O)[C@@H](O)[C@H]1O [biotin-isoADPr],Kd,"[10]; SA biosensor, 1:1 fit",0.644 µM
same,kon,"[10]; mean ± error, n = 3",65700 M⁻¹ s⁻¹
same,koff,"[10]; mean ± error, n = 3, read-out: kdis",0.0423 s⁻¹
O=C(O)c1cc2occc2[nH]1 [compound 12],Hillslope,[1],-1.134
same,IC50,[1]; fragment hits,86.2 µM and 86 µM
O=C(O)c1sccc1-n1cccc1 [compound 13],Hillslope,[1],-1.834
same,IC50,[1]; fragment hits,39.5 µM and 40 µM
"Nc1ncnc2c1ncn2[C@@H]1O[C@H](COP(=O)(O)O)[C@@H](O)[C@H]1O[C@H]1O[C@H](COP(=O)(O)O)[C@@H](O)[C@H]1O [isoADPr, iso-ADP-ribose]",IC50,[1]; 96-well,0.623 µM
same,Kd,[11],0.37 µM
same,Kd,[12],13 µM
